Results: patent US20220162191A1, “SMALL MOLECULE MODULATORS OF IL-17” (LEO PHARMA A/S, priority 2019, published 2022)

Each compound was assayed against T1, human IL-17AA (Homo sapiens, UniProt Q16552) (assay: IL-8 release assay in human epithelial keratinocytes adult (HEKa)). Details: 3 ng/ml human IL-17AA + 10 ng/ml human TNFalpha, 68-72 h, IL-8 by HTRF, read-out: Rel EC50 L-8 release assay.
T1 construct: host or cells: HEK (human embryonic kidney) cells
T1 sequence (Q16552 24-155) 1: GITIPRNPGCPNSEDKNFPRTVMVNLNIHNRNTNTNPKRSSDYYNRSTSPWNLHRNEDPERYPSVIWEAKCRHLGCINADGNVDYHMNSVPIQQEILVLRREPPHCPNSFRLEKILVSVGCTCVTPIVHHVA
T1 sequence (Q16552 24-155) 2: T1 sequence (Q16552 24-155) 1
Type: cell-based
Outline: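 IL-8 secretion, quantified by HTRF (665/620 nm) as percent of controls, served as the readout after 68–72 h culture of HEKa cells with compound plus IL-17AA (3 ng/ml final) and TNF-alpha (10 ng/ml final). Four-parameter logistic curves gave relative IC50 and Emax.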
Work on `Cn1cncc1-c1ccc(NC(=O)C(Cc2cc(-c3ccnc(N4CCC[C@@H]4CO)c3)ccc2Cl)NC(=O)c2ccnn2C)cc1` (stereo partly drawn) [Example 189, N-[1-[[2-chloro-5-[2-[(2R)-2-(hydroxymethyl)pyrrolidin-1-yl]-4-pyridyl]phenyl]methyl]-2-[4-(3-methylimidazol-4-yl)anilino]-2-oxo-ethyl]-2-methyl-pyrazole-3-carboxamide] yielded an EC50 of 100 to 1000 nM.
`Cn1cncc1-c1ccc(NC(=O)C(Cc2cc(-c3ccnc(N4CC(CO)C4)c3)ccc2Cl)NC(=O)c2ccnn2C)cc1` (stereo not shown) [Example 190, N-[1-[[2-chloro-5-[2-[3-(hydroxymethyl)azetidin-1-yl]-4-pyridyl]phenyl]methyl]-2-[4-(3-methylimidazol-4-yl)anilino]-2-oxo-ethyl]-2-methyl-pyrazole-3-carboxamide] gave an EC50 of 100 to 1000 nM.
`Cn1cncc1-c1ccc(NC(=O)C(Cc2cc(-c3ccnc(N4CC[C@H](O)C4)c3)ccc2Cl)NC(=O)c2ccnn2C)cc1` (stereo partly drawn) [Example 191, N-[1-[[2-chloro-5-[2-[(3S)-3-hydroxypyrrolidin-1-yl]-4-pyridyl]phenyl]methyl]-2-[4-(3-methylimidazol-4-yl)anilino]-2-oxo-ethyl]-2-methyl-pyrazole-3-carboxamide] was tested, and the EC50 was 100 to 1000 nM.
`Cn1cncc1-c1ccc(NC(=O)C(Cc2cc(-c3ccnc(N4CC[C@@H](O)C4)c3)ccc2Cl)NC(=O)c2ccnn2C)cc1` (stereo partly drawn) [Example 192, N-[1-[[2-chloro-5-[2-[(3R)-3-hydroxypyrrolidin-1-yl]-4-pyridyl]phenyl]methyl]-2-[4-(3-methylimidazol-4-yl)anilino]-2-oxo-ethyl]-2-methyl-pyrazole-3-carboxamide] gave an EC50 of 100 to 1000 nM.
With `Cn1cncc1-c1ccc(NC(=O)C(Cc2cc(-c3ccnc(N4CC(O)C4)c3)ccc2Cl)NC(=O)c2ccnn2C)cc1` (stereo not shown) [Example 193, N-[1-[[2-chloro-5-[2-(3-hydroxyazetidin-1-yl)-4-pyridyl]phenyl]methyl]-2-[4-(3-methylimidazol-4-yl)anilino]-2-oxo-ethyl]-2-methyl-pyrazole-3-carboxamide] the EC50 was 100 to 1000 nM.
Work on `Cn1cncc1-c1ccc(NC(=O)C(Cc2cc(-c3ccnc(N4CC5(CNC5)C4)c3)ccc2Cl)NC(=O)c2ccnn2C)cc1` (stereo not shown) [Example 194, N-[1-[[2-chloro-5-[2-(2,6-diazaspiro[3.3]heptan-6-yl)-4-pyridyl]phenyl]methyl]-2-[4-(3-methylimidazol-4-yl)anilino]-2-oxo-ethyl]-2-methyl-pyrazole-3-carboxamide] yielded an EC50 of 100 to 1000 nM.
Compound `Cn1cncc1-c1ccc(NC(=O)C(Cc2cc(-c3ccnc(N4CC(N)C4)c3)ccc2Cl)NC(=O)c2ccnn2C)cc1` (stereo not shown) [Example 195, N-[1-[[5-[2-(3-aminoazetidin-1-yl)-4-pyridyl]-2-chloro-phenyl]methyl]-2-[4-(3-methylimidazol-4-yl)anilino]-2-oxo-ethyl]-2-methyl-pyrazole-3-carboxamide] has an EC50 of 100 to 1000 nM.
`CNC1CN(c2cc(-c3ccc(Cl)c(CC(NC(=O)c4ccnn4C)C(=O)Nc4ccc(-c5cncn5C)cc4)c3)ccn2)C1` (stereo not shown) [Example 196, N-[1-[[2-chloro-5-[2-[3-(methylamino)azetidin-1-yl]-4-pyridyl]phenyl]methyl]-2-[4-(3-methylimidazol-4-yl)anilino]-2-oxo-ethyl]-2-methyl-pyrazole-3-carboxamide] showed an EC50 of 100 to 1000 nM.
`Cn1cncc1-c1ccc(NC(=O)C(Cc2cc(-c3ccnc(N4CCNCC4)c3)ccc2Cl)NC(=O)c2ccnn2C)cc1` (stereo not shown) [Example 197, N-[1-[[2-chloro-5-(2-piperazin-1-yl-4-pyridyl)phenyl]methyl]-2-[4-(3-methylimidazol-4-yl)anilino]-2-oxo-ethyl]-2-methyl-pyrazole-3-carboxamide] gave an EC50 of 100 to 1000 nM.
With `CCc1cc(-c2ccc(Cl)c(CC(NC(=O)c3ccnn3C)C(=O)Nc3ccc(-c4nncn4C)cc3)c2)ccc1C#N` (stereo not shown) [Example 198, N-[1-[[2-chloro-5-(4-cyano-3-ethyl-phenyl)phenyl]methyl]-2-[4-(4-methyl-1,2,4-triazol-3-yl)anilino]-2-oxo-ethyl]-2-methyl-pyrazole-3-carboxamide] the EC50 was over 1000 nM.
